Assay results: patent US10737072B2, “Control catheters and methods for pulmonary suffusion and related therapies” (SUFFUSION TECHNOLOGIES LLC, priority 2012, dated 2020)
Read-outs that look alike come from different tables or passages of the source.

Legend:
[1] = system: primary and metastatic cancer; conditions: et al., cited from earlier work
stage IV NSCLC [2] = experiment: Thoracoscopic lung suffusion, phase I clinical trial; type: in vivo, human
Text: The term “suffusion” has been defined as the slow diffuse permeation of the tissues by an injectate during arterial or venous occlusion. Unlike methods for arterial infusion or isolated perfusion, those for suffusion require neither permanent occlusion nor recirculation. The technique involves isolating chemotherapy into the lung by interventional radiologic control of the pulmonary artery and endoscopic control of the pulmonary veins. The suffusion method was first described in a canine model in 2002. A minimally invasive approach and its short-term potential were established using a non-toxic tracer compound. Rapid permeation of the lung and 75% of tracer remaining isolated the lung for 30 minutes was observed.
One phase I clinical trial on four stage IV NSCLC patients has been conducted.

[3] = system: primary and metastatic cancer; conditions: et al., cited from earlier work; remark: listed apart in the source
stage IV NSCLC [4] = conditions: cited from earlier work
[5] = Burt, 2000, 8 cases of metastatic sarcoma
[6] = Schroder, 2002, 4 cases of metastatic sarcoma, following metastectomy
[7] = Hendriks, 2004, 16 cases of resectable pulmonary metastases, followed by metastectomy

COc1cccc2c1C(=O)c1c(O)c3c(c(O)c1C2=O)C[C@@](O)(C(=O)CO)C[C@@H]3O[C@H]1C[C@H](N)[C@H](O)[C@H](C)O1 [Doxorubicin]
Pulmonary fibrosis (number of cases) [1, 5]: fibrosis (1), cases
reduced pulmonary function (number of cases) [1, 5]: function (7) cases
response [1, 5]: 0% response

N.N.[Cl][Pt][Cl] [Cisplatin]
patients who could not tolerate suffusion (stage IV NSCLC [2]; total of ten patients treated by suffusion (unpublished data)): One of 10
patients with evaluable disease showing control or reduction of the main tumor in the suffused lung (stage IV NSCLC [2]; unpublished data, growth of tumor in other parts of the body despite systemic chemotherapy): 4 of 5
complete response ([3]; So, 2004, 3 cases of locally advanced NSCLC, and carinal resection): 100% complete
Interstitial and alveolar edema (number of cases) ([1]; Ratto, 1996, 6 cases of metastatic sarcoma): (2) cases
disease-free after 1 year [1, 6]: 75% disease-
localized pulmonary edema (number of cases) [1, 6]: (4), reduced cases
reduced pulmonary function at 3 weeks (number of cases) [1, 6]: weeks (3) cases
reduction in tumor volume (stage IV NSCLC [4]; Demmy, et al., 2009, 4 cases of stage IV NSCLC, with systemic chemotherapy): 14%-96%
Tumor volume reduced (stage IV NSCLC [4]; four stage IV NSCLC patients, systemic chemotherapy began within 2 weeks of the suffusion): 14% to 96%

N[C@@H](Cc1ccc(N(CCCl)CCCl)cc1)C(=O)O [Melphalan]
Chemical pneumonitis (number of cases) [1, 7]: pneumonitis (2), cases
localized pulmonary edema (number of cases) [1, 7]: (3), pneumonia cases
pneumonia (number of cases) [1, 7]: (1), cases
pneumothorax (number of cases) [1, 7]: pneumothorax (1) cases

CO[C@@]12[C@H](COC(N)=O)C3=C(C(=O)C(C)=C(N)C3=O)N1C[C@@H]1N[C@@H]12 [Mitomycin C]
tumor volume reduced in ([3]; Neyazaki, 1969, 27 cases): 52%
